Measurements as given in ChEMBL document CHEMBL4507296 (2021).

Columns and labels:
[1] = target: AP2-associated protein kinase 1 (Homo sapiens) (UniProt Q2M2I8); conditions: Compound concentration 1000.0 nM
[2] = test system: Tyrosine-protein kinase ABL1 (Homo sapiens), P00519 [H396P]; conditions: Compound concentration 1000.0 nM
[3] = test system: Tyrosine-protein kinase ABL1 (Homo sapiens), P00519 [T315I]; conditions: Compound concentration 1000.0 nM
[4] = target: Tyrosine-protein kinase ABL1 (Homo sapiens) (UniProt P00519); conditions: Compound concentration 1000.0 nM
[5] = target: Atypical kinase COQ8A, mitochondrial (Homo sapiens) (UniProt Q8NI60); conditions: Compound concentration 1000.0 nM
[6] = target: Serine/threonine-protein kinase BRSK2 (Homo sapiens) (UniProt Q8IWQ3); conditions: Compound concentration 1000.0 nM
[7] = target: Calcium/calmodulin-dependent protein kinase type 1D (Homo sapiens) (UniProt Q8IU85); conditions: Compound concentration 1000.0 nM
[8] = target: Calcium/calmodulin-dependent protein kinase type II subunit gamma (Homo sapiens) (UniProt Q13555); conditions: Compound concentration 1000.0 nM
[9] = target: Cyclin-dependent kinase 11B (Homo sapiens) (UniProt P21127); conditions: Compound concentration 1000.0 nM
[10] = target: Cyclin-dependent kinase 5 (Homo sapiens) (UniProt Q00535); conditions: Compound concentration 1000.0 nM
Cyclin-dependent kinase 5 (Homo sapiens), sequence (Q00535 whole entry, looked up): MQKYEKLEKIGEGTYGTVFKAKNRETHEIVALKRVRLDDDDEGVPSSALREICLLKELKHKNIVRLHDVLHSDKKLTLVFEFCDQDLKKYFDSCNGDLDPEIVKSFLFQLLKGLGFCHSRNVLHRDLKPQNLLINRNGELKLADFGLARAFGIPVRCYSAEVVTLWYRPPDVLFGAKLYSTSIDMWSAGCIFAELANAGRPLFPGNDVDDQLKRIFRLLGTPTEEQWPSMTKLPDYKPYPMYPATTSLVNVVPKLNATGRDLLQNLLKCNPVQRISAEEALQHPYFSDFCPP

[11] = target: Cyclin-dependent kinase 9 (Homo sapiens) (UniProt P50750); conditions: Compound concentration 1000.0 nM
[12] = target: Casein kinase I isoform delta (Homo sapiens) (UniProt P48730); conditions: Compound concentration 1000.0 nM
Casein kinase I isoform delta (Homo sapiens), sequence (P48730 whole entry, looked up, canonical isoform): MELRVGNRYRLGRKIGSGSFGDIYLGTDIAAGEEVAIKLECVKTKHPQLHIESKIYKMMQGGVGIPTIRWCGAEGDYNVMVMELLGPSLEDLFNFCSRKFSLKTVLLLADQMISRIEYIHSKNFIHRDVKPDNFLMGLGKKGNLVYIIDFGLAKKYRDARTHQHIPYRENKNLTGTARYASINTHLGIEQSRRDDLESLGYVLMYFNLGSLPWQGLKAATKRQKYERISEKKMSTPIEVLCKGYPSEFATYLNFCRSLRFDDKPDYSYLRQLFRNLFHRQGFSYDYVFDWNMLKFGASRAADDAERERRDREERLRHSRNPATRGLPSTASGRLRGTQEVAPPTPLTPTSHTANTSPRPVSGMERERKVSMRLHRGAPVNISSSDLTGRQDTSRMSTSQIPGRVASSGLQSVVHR

[13] = target: Casein kinase I isoform gamma-2 (Homo sapiens) (UniProt P78368); conditions: Compound concentration 1000.0 nM
Casein kinase I isoform gamma-2 (Homo sapiens), sequence (P78368 whole entry, looked up, the tested form may be a part, canonical isoform): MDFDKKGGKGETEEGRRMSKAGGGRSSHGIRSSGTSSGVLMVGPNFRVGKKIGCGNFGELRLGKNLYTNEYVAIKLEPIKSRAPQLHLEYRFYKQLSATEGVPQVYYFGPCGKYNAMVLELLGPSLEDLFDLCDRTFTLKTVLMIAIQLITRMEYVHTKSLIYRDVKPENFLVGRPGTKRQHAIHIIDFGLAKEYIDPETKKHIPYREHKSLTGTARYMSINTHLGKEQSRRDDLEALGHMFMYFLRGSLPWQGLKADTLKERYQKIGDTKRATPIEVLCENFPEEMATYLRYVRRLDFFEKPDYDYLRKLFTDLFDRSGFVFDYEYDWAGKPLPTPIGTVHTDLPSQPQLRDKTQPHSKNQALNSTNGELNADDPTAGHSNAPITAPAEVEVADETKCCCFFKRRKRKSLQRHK

[14] = target: Epithelial discoidin domain-containing receptor 1 (Homo sapiens) (UniProt Q08345); conditions: Compound concentration 1000.0 nM
[15] = target: Ephrin type-A receptor 6 (Homo sapiens) (UniProt Q9UF33); conditions: Compound concentration 1000.0 nM
Ephrin type-A receptor 6 (Homo sapiens), sequence (Q9UF33 whole entry): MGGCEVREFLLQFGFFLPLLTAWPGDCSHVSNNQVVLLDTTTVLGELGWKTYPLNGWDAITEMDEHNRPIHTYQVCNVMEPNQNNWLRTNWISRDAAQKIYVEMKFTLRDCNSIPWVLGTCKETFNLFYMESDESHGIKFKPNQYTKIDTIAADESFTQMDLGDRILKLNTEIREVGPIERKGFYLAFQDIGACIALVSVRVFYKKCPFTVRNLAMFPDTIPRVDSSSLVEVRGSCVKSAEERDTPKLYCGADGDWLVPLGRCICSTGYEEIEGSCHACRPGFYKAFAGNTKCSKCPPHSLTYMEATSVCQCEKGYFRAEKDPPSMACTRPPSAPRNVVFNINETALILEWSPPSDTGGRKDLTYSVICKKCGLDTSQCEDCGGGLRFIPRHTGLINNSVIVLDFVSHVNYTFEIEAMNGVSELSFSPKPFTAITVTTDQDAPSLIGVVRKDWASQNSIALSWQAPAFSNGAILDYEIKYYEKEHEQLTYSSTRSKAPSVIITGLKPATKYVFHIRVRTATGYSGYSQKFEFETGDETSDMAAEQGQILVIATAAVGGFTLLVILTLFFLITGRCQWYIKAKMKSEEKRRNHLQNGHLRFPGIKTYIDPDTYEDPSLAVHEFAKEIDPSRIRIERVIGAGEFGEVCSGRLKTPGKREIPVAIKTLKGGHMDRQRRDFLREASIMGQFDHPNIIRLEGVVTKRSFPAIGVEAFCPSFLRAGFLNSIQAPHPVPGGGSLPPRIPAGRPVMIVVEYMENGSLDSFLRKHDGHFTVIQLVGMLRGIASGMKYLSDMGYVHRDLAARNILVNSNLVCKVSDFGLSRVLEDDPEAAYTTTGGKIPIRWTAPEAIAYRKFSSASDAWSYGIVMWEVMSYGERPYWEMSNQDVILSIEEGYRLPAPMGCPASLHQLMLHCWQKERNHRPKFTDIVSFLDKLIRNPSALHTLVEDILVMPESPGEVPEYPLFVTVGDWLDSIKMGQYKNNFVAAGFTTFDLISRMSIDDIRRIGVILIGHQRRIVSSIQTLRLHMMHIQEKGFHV

[16] = target: Ephrin type-B receptor 2 (Homo sapiens) (UniProt P29323); conditions: Compound concentration 1000.0 nM
[17] = target: Mitogen-activated protein kinase 1 (Homo sapiens) (UniProt P28482); conditions: Compound concentration 1000.0 nM
[18] = target: Mitogen-activated protein kinase 6 (Homo sapiens) (UniProt Q16659); conditions: Compound concentration 1000.0 nM
[19] = test system: Fibroblast growth factor receptor 3 (Homo sapiens), P22607 [G697C]; conditions: Compound concentration 1000.0 nM
[20] = test system: Receptor-type tyrosine-protein kinase FLT3 (Homo sapiens), P36888 [R834Q]; conditions: Compound concentration 1000.0 nM
[21] = target: Insulin receptor (Homo sapiens) (UniProt P06213); conditions: Compound concentration 1000.0 nM
[22] = target: Insulin receptor-related protein (Homo sapiens) (UniProt P14616); conditions: Compound concentration 1000.0 nM
[23] = target: Serine/threonine-protein kinase LATS1 (Homo sapiens) (UniProt O95835); conditions: Compound concentration 1000.0 nM
[24] = target: Mitogen-activated protein kinase kinase kinase kinase 3 (Homo sapiens) (UniProt Q8IVH8); conditions: Compound concentration 1000.0 nM
[25] = target: MAP kinase-activated protein kinase 5 (Homo sapiens) (UniProt Q8IW41); conditions: Compound concentration 1000.0 nM
[26] = target: Tyrosine-protein kinase Mer (Homo sapiens) (UniProt Q12866); conditions: Compound concentration 1000.0 nM
Tyrosine-protein kinase Mer (Homo sapiens), sequence (Q12866 whole entry): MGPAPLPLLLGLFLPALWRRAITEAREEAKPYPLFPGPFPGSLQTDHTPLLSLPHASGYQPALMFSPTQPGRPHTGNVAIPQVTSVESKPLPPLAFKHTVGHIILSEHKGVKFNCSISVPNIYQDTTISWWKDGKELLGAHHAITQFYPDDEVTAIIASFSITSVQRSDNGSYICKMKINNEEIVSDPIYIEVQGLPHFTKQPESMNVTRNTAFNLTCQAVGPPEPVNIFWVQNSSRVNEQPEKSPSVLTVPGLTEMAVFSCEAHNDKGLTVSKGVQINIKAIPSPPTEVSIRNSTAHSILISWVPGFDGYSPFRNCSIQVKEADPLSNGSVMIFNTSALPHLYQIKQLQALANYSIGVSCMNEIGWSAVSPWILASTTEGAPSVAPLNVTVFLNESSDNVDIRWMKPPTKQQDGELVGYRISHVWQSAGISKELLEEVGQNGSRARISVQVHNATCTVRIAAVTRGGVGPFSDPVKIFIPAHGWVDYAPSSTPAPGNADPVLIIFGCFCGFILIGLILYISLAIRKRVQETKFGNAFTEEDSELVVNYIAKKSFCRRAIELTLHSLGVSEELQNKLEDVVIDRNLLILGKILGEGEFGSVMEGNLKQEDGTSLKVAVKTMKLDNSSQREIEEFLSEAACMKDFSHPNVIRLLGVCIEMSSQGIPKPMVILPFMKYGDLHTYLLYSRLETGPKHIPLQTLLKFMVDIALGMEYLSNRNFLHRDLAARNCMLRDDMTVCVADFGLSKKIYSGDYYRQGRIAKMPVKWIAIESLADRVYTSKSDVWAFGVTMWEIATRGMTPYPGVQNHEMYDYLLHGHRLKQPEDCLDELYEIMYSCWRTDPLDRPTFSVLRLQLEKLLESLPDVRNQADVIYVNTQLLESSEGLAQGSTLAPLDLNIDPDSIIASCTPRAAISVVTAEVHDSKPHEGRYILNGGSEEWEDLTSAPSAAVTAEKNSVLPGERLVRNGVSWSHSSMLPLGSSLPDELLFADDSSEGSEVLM

[27] = target: Serine/threonine-protein kinase MRCK alpha (Homo sapiens) (UniProt Q5VT25); conditions: Compound concentration 1000.0 nM
[28] = target: Calcium-dependent protein kinase 1 (Plasmodium falciparum) (UniProt P62344); conditions: Compound concentration 1000.0 nM
[29] = target: Serine/threonine-protein kinase PLK3 (Homo sapiens) (UniProt Q9H4B4); conditions: Compound concentration 1000.0 nM
[30] = target: cAMP-dependent protein kinase catalytic subunit PRKX (Homo sapiens) (UniProt P51817); conditions: Compound concentration 1000.0 nM
[31] = test system: Proto-oncogene tyrosine-protein kinase receptor Ret (Homo sapiens), P07949 [M918T]; conditions: Compound concentration 1000.0 nM
[32] = target: Rho-associated protein kinase 2 (Homo sapiens) (UniProt O75116); conditions: Compound concentration 1000.0 nM
Rho-associated protein kinase 2 (Homo sapiens), sequence (O75116 whole entry, looked up): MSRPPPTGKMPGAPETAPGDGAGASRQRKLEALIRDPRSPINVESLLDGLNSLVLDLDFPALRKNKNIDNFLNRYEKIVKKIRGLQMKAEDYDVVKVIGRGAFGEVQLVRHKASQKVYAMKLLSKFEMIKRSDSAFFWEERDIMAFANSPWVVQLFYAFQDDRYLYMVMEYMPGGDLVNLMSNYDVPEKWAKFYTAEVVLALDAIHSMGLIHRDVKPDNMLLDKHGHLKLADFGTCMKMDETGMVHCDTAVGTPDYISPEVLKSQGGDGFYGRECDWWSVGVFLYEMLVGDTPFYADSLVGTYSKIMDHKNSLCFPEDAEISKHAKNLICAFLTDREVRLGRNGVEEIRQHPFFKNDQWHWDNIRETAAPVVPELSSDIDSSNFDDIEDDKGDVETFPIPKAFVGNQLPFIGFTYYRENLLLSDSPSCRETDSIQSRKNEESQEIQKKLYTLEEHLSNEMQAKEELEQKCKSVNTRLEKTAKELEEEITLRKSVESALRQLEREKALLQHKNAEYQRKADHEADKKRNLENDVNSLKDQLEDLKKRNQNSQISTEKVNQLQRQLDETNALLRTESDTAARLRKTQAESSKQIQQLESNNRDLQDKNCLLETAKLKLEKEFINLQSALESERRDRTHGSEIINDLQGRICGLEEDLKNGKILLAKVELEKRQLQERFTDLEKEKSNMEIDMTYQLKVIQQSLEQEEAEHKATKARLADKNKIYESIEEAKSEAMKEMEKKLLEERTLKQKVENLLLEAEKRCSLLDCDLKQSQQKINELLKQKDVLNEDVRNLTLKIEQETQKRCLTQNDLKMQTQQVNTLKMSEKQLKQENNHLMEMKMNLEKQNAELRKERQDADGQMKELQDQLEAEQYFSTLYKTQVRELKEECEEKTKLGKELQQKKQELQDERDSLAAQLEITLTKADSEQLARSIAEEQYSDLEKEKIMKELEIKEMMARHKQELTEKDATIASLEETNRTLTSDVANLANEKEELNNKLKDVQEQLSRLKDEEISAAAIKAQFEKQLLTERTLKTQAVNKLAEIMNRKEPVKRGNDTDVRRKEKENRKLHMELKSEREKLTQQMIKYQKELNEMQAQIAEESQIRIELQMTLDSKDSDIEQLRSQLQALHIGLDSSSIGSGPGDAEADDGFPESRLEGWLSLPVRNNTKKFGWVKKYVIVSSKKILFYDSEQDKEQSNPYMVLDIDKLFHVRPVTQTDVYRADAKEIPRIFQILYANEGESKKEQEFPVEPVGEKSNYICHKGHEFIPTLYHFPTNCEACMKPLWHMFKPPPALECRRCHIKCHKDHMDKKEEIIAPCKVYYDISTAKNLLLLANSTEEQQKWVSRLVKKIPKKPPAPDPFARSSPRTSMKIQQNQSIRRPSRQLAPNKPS

[33] = target: Ribosomal protein S6 kinase alpha-3 (Homo sapiens) (UniProt P51812); conditions: Compound concentration 1000.0 nM
[34] = target: Ribosomal protein S6 kinase alpha-6 (Homo sapiens) (UniProt Q9UK32); conditions: Compound concentration 1000.0 nM
[35] = target: SNF-related serine/threonine-protein kinase (Homo sapiens) (UniProt Q9NRH2); conditions: Compound concentration 1000.0 nM
[36] = target: Serine/threonine-protein kinase 33 (Homo sapiens) (UniProt Q9BYT3); conditions: Compound concentration 1000.0 nM
[37] = target: Angiopoietin-1 receptor (Homo sapiens) (UniProt Q02763); conditions: Compound concentration 1000.0 nM
[38] = target: Dual specificity protein kinase TTK (Homo sapiens) (UniProt P33981); conditions: Compound concentration 1000.0 nM
[39] = target: Tyrosine-protein kinase receptor TYRO3 (Homo sapiens) (UniProt Q06418); conditions: Compound concentration 1000.0 nM
[40] = target: Tyrosine-protein kinase Yes (Homo sapiens) (UniProt P07947); conditions: Compound concentration 1000.0 nM
[41] = target: 5-hydroxytryptamine receptor 1B (Homo sapiens) (UniProt P28222); conditions: Compound concentration 10.0 uM
[42] = target: Beta-1 adrenergic receptor (Homo sapiens) (UniProt P08588); conditions: Compound concentration 10.0 uM
Beta-1 adrenergic receptor (Homo sapiens), sequence (P08588 whole entry, looked up): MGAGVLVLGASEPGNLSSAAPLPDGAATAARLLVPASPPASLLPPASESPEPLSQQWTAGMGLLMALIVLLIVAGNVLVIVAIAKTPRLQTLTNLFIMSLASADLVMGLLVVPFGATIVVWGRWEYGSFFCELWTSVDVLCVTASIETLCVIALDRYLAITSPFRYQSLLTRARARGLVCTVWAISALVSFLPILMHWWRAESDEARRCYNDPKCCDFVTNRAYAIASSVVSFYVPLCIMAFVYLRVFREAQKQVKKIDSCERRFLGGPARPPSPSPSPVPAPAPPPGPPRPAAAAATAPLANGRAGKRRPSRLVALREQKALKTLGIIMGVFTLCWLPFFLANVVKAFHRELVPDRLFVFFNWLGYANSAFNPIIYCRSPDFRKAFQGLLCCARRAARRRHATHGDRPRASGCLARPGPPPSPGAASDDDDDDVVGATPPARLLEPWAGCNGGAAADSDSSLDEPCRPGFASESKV

[43] = target: GABA-A receptor; anion channel (Rattus norvegicus) (UniProt O09028+P15431+P18506+P18508+P19969+P20236+P23574+P23576+P28471+P28473+P30191+P62813+P63079+P63138+Q91ZM7+Q9ES14); conditions: Compound concentration 10.0 uM

C[C@H](c1ccc(F)cc1)N(Cc1cccc(C(=O)O)c1)C(=O)c1cnc2ccccc2c1 [PF-05105679]
inactive: residual activity [1] 100% | residual activity [2] 73% | residual activity [3] 75% | residual activity [4] 100% | residual activity [5] 85% | residual activity [6] 100% | residual activity [7] 100% | residual activity [8] 94% | residual activity [9] 84% | residual activity [10] 100% | residual activity [11] 89% | residual activity [12] 92% | residual activity [13] 100% | residual activity [14] 100% | residual activity [15] 100% | residual activity [16] 96% | residual activity [17] 99% | residual activity [18] 100% | residual activity [19] 100% | residual activity [20] 100% | residual activity [21] 100% | residual activity [22] 84% | residual activity [23] 100% | residual activity [24] 90% | residual activity [25] 96% | residual activity [26] 95% | residual activity [27] 100% | residual activity [28] 100% | residual activity [29] 100% | residual activity [30] 100% | residual activity [31] 86% | residual activity [32] 100% | residual activity [33] 100% | residual activity [34] 100% | residual activity [35] 96% | residual activity [36] 100% | residual activity [37] 98% | residual activity [38] 100% | residual activity [39] 100% | residual activity [40] 100% | inhibition [41] 4.38% | inhibition [42] 7.42% | inhibition [43] 20.8%
